Reference: patent US20090291462A1, “Detection or Quantification of Aggrecan and its Fragments” (Immunodiagnostic Systems Nordic A/S, priority 2005, published 2009)

B1: oncostatin M (protein, UniProt P13725 26-221, looked up)
Oncostatin-M: AAIGSCSKEYRVLLGQLQKQTDLMQDTSRLLDPYIRIQGLDVPKLREHCRERPGAFPSEETLRGLGRRGFLQTLNATLGCVLHRLADLEQRLPKAQDLERSGLNIEDLEKLQMARPNILGLRNNIYCMAQLLDNSDTAEPTKAGRGASQPPTPTPASDAFQRKLEGCRFLHGYHRFMHSVGRVFSKWGESPNRSRR
notes: cytokine oncostatin M used to stimulate cartilage explants

Key:
Assay type in all cases: cell-based
[1] = tested on: Bovine articular cartilage explants; test: ^342FFGVG-G2 release into supernatants of bovine articular cartilage explants (AF-28/F78 sandwich assay); details: FIG. 5; for release of ^342FFGVG-G2 on cytokine stimulation: OSM and TNF-α together, after day 12
Protocol: Streptavidin plates were incubated for 1 hour, 300 RPM, 20° C. with 100 μl 1500 ng/ml biotinylated AF-28 monoclonal antibody against the epitope ^342FFGVG-G2. Antibody dilutions were made in PBS-BTB buffer. After incubating the plates for 1 hour, plates were washed 5 times with washing buffer (0.15 mol/l NaCl, 0.05% (v/v) Tween 20). Subsequently 50 μl standards (MMP-13 digested purified porcine aggrecan 47-3000 ng/ml or pre-diluted explant supernatants in PBS-BTB were added, and the plates were incubated for 1 hour, 300 RPM, 20° C. After the incubation period, the plates were washed 5 times as described previously, and 500 ng/ml horseradish Peroxidase (POD)-labelled F78 antibody was added. After incubating for 1 hour, 300 RPM, 20° C., the plates were washed 5 times, 100 μl of TMB substrate was added, and the plates were incubated for 15 minutes, 300 RPM, 20° C. in the dark before 150 μl 0.18 M H2SO4 was added. The absorbance was measured immediately after at 450 nm.
(§1) The G2 and the ^342FFGVG-G2 test described above were evaluated using conditioned medium from cartilage explants. Bovine articular cartilage was obtained from heifer stifle joints. Pieces of cartilage (16±4 mg) were placed in 96 well plates and incubated at 37° C. with 5% CO2 and shaking (50 rpm). Serum-free D-MEM medium with or without the cytokines oncostatin M and tumour necrosis factor α (TNFα) or the MMP inhibitor GM6001 was used. As negative control, cartilage was placed in chryo-tubes, frozen in liquid N2, and thawed at 37° C. in water-bath for three repeated freeze-thaw cycles. The explants culture medium was replaced every 3rd day, and supernatants were stored at −20° C. until further analysis.

[2] = tested on: Bovine articular cartilage explants; test: CS846 release into supernatants of bovine articular cartilage explants (IBEX CS846 competitive ELISA kit); details: FIG. 6; for release of CS846 on cytokine stimulation: OSM and TNFα together
Protocol: as §1
The supernatants evaluated above was also measured for CS846 (IBEX CS846 competitive ELISA kit).

[3] = tested on: Bovine articular cartilage explants; test: G2 release into supernatants of bovine articular cartilage explants (F78 sandwich assay); details: FIG. 5; for release of G2 on cytokine stimulation: OSM and TNF-α together, decreases after day 5, background after day 12
Protocol: A sandwich assay was developed using monoclonal antibodies as described above. Streptavidin plates were incubated for 1 hour, 300 RPM, 20° C. with 100 μl 600 ng/ml biotinylated F78 monoclonal antibody against the G2 domain of aggrecan.
After incubating the plates for 1 hour, plates were washed 5 times with washing buffer (0.15 mol/l NaCl, 0.05% (v/v) Tween 20). Subsequently 100 μl standards (purified bovine aggrecan 0.05 ng/ml-10 ng/ml, or pre-diluted explant supernatants in PBS-BTB were added, and the plates were incubated for 1 hour, 300 RPM, 20° C. After the incubation period, the plates were washed 5 times as described previously, and 500 ng/ml horseradish Peroxidase (POD)-labelled F78 antibody was added. After incubating for 1 hour, 300 RPM, 20° C., the plate was washed 5 times, and 100 μl of TMB substrate was added, and the plate was incubated for 15 minutes, 300 RPM, 20° C. in the dark before 150 μl 0.18 M H2SO4 was added. The absorbance was measured immediately at 450 nm.
as §1

Molecule | release of ^342FFGVG-G2 on cytokine stimulation [1] | release of CS846 on cytokine stimulation [2] | release of G2 on cytokine stimulation [3] | release of ^342FFGVG-G2 in the presence of the MMP inhibitor ([1]; explants treated with OSM and TNF-α concomitantly with GM6001) | CS846 release during inhibition of MMP activity ([2]; explants with GM6001) | release of G2 on addition of the MMP inhibitor ([3]; explants treated with OSM and TNF-α plus GM6001)
tumour necrosis factor α [TNF-α] | stimulate an increase | do not stimulate release | initial elevation |  |  | 
CNC(=O)[C@H](Cc1c[nH]c2ccccc12)NC(=O)[C@@H](CC(=O)NO)CC(C)C [GM6001] |  |  |  | completely abrogated | strong, initial elevation | did not inhibit
B1 | stimulate an increase | do not stimulate release | initial elevation |  |  | 
